Measured values reported in patent US9745283B2, “Uracil derivatives as AXL and c-MET kinase inhibitors” (priority 2011, dated 2017).
pIC50: −log10 of the molar value.

What was measured:
[1] = biological target: recombinant human baculovirus-expressed AXL (Homo sapiens (Human), UniProt P30530); assay: AXL Kinase Assay (HTRF KinEASE); format: biochemical; settings: average of two or more determinations
[2] = biological target: recombinant human baculovirus-expressed cMET (Homo sapiens (Human), UniProt P08581); assay: C-MET Kinase Assay (HTRF KinEASE); format: biochemical; settings: average of two or more determinations; read-out: c-MET IC50
In short: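 HTRF KinEASE format with recombinant human baculovirus-expressed cMET at 8 ng/mL, biotinylated peptide at 0.1 μM and ATP at 0.02 μM. IC50 came from percent control activity versus log concentration, fitted by nonlinear regression to a variable-slope sigmoidal equation with bottom fixed at 0 and top at 100.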

Row | SMILES | pIC50 [1] | pIC50 [2]
1 | COc1cc2nccc(Oc3ccc(NC(=O)c4cn(CC5CCOCC5)c(=O)n(-c5ccc(F)cc5)c4=O)cc3F)c2cc1OC [Example 74, 3-(4-Fluoro-phenyl)-2,4-dioxo-1-(tetrahydro-pyran-4-ylmethyl)-1,2,3,4-tetrahydro-pyrimidine-5-carboxylic acid [4-(6,7-dimethoxy-quinolin-4-yloxy)-3-fluoro-phenyl]-amide] | > 8.00 | 7.00 to 8.00
2 | COc1cc2nccc(Oc3ccc(NC(=O)c4cn(CCCO)c(=O)n(-c5ccc(F)cc5)c4=O)cc3F)c2cc1OC [Example 50, 3-(4-Fluorophenyl)-1-(3-hydroxypropyl)-2,4-dioxo-1,2,3,4-tetrahydropyrimidine-5-carboxylic acid [4-(6,7-dimethoxyquinolin-4-yloxy)-3-fluorophenyl]-amide] | > 8.00 | > 8.00
3 | COc1cc2nccc(Oc3ccc(NC(=O)c4nn(C)c(=O)n(CC5CCC5)c4=O)cc3F)c2cc1OC [Example 128, 4-Cyclobutylmethyl-2-methyl-3,5-dioxo-2,3,4,5-tetrahydro-[1,2,4]triazine-6-carboxylic acid [4-(6,7-dimethoxy-quinolin-4-yloxy)-3-fluoro-phenyl]-amide] | > 8.00 | 7.00 to 8.00
4 | C=CCn1cc(C(=O)Nc2ccc(Oc3ccnc4cc(OC)c(OC)cc34)c(F)c2)c(=O)n(-c2ccc(F)cc2)c1=O [Example 9, 1-Allyl-3-(4-fluorophenyl)-2,4-dioxo-1,2,3,4-tetrahydropyrimidine-5-carboxylic acid [4-(6,7-dimethoxyquinolin-4-yloxy)-3-fluorophenyl]-amide] | > 8.00 | > 8.00
5 | COc1cc2nccc(Oc3ccc(NC(=O)c4cn(CCO)c(=O)n(-c5ccc(F)cc5)c4=O)cc3F)c2cc1OC [Example 49, 3-(4-Fluorophenyl)-1-(2-hydroxyethyl)-2,4-dioxo-1,2,3,4-tetrahydropyrimidine-5-carboxylic acid [4-(6,7-dimethoxyquinolin-4-yloxy)-3-fluorophenyl]-amide] | > 8.00 | > 8.00
6 | COc1ccc2c(Oc3ccc(NC(=O)c4nn(C(C)C)c(=O)n(-c5ccc(F)cc5)c4=O)cc3F)ccnc2c1 [Example 111, 4-(4-Fluorophenyl)-2-isopropyl-3,5-dioxo-2,3,4,5-tetrahydro-[1,2,4]triazine-6-carboxylic acid [3-fluoro-4-(7-methoxyquinolin-4-yloxy)-phenyl]-amide] | > 8.00 | 7.00 to 8.00
7 | COc1cc2nccc(Oc3ccc(NC(=O)c4cn(CC5CCCO5)c(=O)n(-c5ccc(F)cc5)c4=O)cc3F)c2cc1OC (stereo not drawn) [Example 73, 3-(4-Fluoro-phenyl)-2,4-dioxo-1-(tetrahydro-furan-2-ylmethyl)-1,2,3,4-tetrahydro-pyrimidine-5-carboxylic acid [4-(6,7-dimethoxy-quinolin-4-yloxy)-3-fluoro-phenyl]-amide] | > 8.00 | 7.00 to 8.00
8 | CCn1c(C)c(C(=O)Nc2ccc(Oc3ccnc4cc(OC)c(OC)cc34)c(F)c2)c(=O)n(-c2ccc(F)cc2)c1=O [Example 32, 1-Ethyl-3-(4-fluorophenyl)-6-methyl-2,4-dioxo-1,2,3,4-tetrahydropyrimidine-5-carboxylic acid [4-(6,7-dimethoxyquinolin-4-yloxy)-3-fluorophenyl]-amide] | > 8.00 | > 8.00
9 | CCn1nc(C(=O)Nc2ccc(Oc3ccnc4cc(OC)c(OC)cc34)c(F)c2)c(=O)n(-c2ccc(F)cc2)c1=O [Example 105, 2-Ethyl-4-(4-fluoro-phenyl)-3,5-dioxo-2,3,4,5-tetrahydro-[1,2,4]triazine-6-carboxylic acid [4-(6,7-dimethoxy-quinolin-4-yloxy)-3-fluoro-phenyl]-amide] | > 8.00 | 7.00 to 8.00
10 | COc1cc2nccc(Oc3ccc(NC(=O)c4cn(CCN5CCOCC5)c(=O)n(-c5ccc(F)cc5)c4=O)cc3F)c2cc1OC [Example 16, 3-(4-Fluorophenyl)-1-(2-morpholin-4-yl-ethyl)-2,4-dioxo-1,2,3,4-tetrahydropyrimidine-5-carboxylic acid [4-(6,7-dimethoxyquinolin-4-yloxy)-3-fluorophenyl]-amide] | > 8.00 | > 8.00
11 | CCOc1cc2nccc(Oc3ccc(NC(=O)c4cn(CC)c(=O)n(-c5ccc(F)cc5)c4=O)cc3F)c2cc1OCC [Example 33, 1-Ethyl-3-(4-fluorophenyl)-2,4-dioxo-1,2,3,4-tetrahydropyrimidine-5-carboxylic acid [4-(6,7-diethoxyquinolin-4-yloxy)-3-fluorophenyl]-amide] | > 8.00 | 7.00 to 8.00
12 | COc1cc2nccc(Oc3ccc(NC(=O)c4cn(CCF)c(=O)n(-c5ccc(F)cc5)c4=O)cc3F)c2cc1OC [Example 69, 1-(2-Fluoro-ethyl)-3-(4-fluoro-phenyl)-2,4-dioxo-1,2,3,4-tetrahydro-pyrimidine-5-carboxylic acid [4-(6,7-dimethoxy-quinolin-4-yloxy)-3-fluoro-phenyl]-amide] | > 8.00 | > 8.00
13 | COc1cc2nccc(Oc3ccc(NC(=O)c4nn(CCO)c(=O)n(-c5ccc(F)cc5)c4=O)cc3F)c2cc1OC [Example 108, 4-(4-Fluorophenyl)-2-(2-hydroxyethyl)-3,5-dioxo-2,3,4,5-tetrahydro-[1,2,4]triazine-6-carboxylic acid [4-(6,7-dimethoxyquinolin-4-yloxy)-3-fluorophenyl]-amide] | > 8.00 | > 8.00
14 | C#CCn1cc(C(=O)Nc2ccc(Oc3ccnc4cc(OC)c(OC)cc34)c(F)c2)c(=O)n(-c2ccc(F)cc2)c1=O [Example 61, 3-(4-Fluoro-phenyl)-2,4-dioxo-1-prop-2-ynyl-1,2,3,4-tetrahydro-pyrimidine-5-carboxylic acid [4-(6,7-dimethoxy-quinolin-4-yloxy)-3-fluoro-phenyl]-amide] | > 8.00 | > 8.00
15 | COc1cc2nccc(Oc3ccc(NC(=O)c4nn(C)c(=O)n(CC(C)C)c4=O)cc3F)c2cc1OC [Example 127, 4-Isobutyl-2-methyl-3,5-dioxo-2,3,4,5-tetrahydro-[1,2,4]triazine-6-carboxylic acid [4-(6,7-dimethoxy-quinolin-4-yloxy)-3-fluoro-phenyl]-amide] | > 8.00 | 7.00 to 8.00
16 | COc1cc2nccc(Oc3ccc(NC(=O)c4cn(CCN(C)C)c(=O)n(-c5ccc(F)cc5)c4=O)cc3F)c2cc1OC [Example 20, 1-(2-Dimethylaminoethyl)-3-(4-fluorophenyl)-2,4-dioxo-1,2,3,4-tetrahydropyrimidine-5-carboxylic acid [4-(6,7-dimethoxyquinolin-4-yloxy)-3-fluorophenyl]-amide] | > 8.00 | 7.00 to 8.00
17 | COc1cc2nccc(Oc3ccc(NC(=O)c4nn(C)c(=O)n(CC5CCOCC5)c4=O)cc3F)c2cc1OC [Example 126, 2-Methyl-3,5-dioxo-4-(tetrahydro-pyran-4-ylmethyl)-2,3,4,5-tetrahydro-[1,2,4]triazine-6-carboxylic acid [4-(6,7-dimethoxy-quinolin-4-yloxy)-3-fluoro-phenyl]-amide] | > 8.00 | 6.00 to 7.00
18 | COc1cc2nccc(Oc3ccc(NC(=O)c4nn(C)c(=O)n(-c5ccc(F)cc5)c4=O)cc3F)c2cc1OC [Example 104, 4-(4-Fluorophenyl)-2-methyl-3,5-dioxo-2,3,4,5-tetrahydro-[1,2,4]triazine-6-carboxylic acid [4-(6,7-dimethoxy-quinolin-4-yloxy)-3-fluoro-phenyl]-amide] | > 8.00 | > 8.00
